Experimental findings from patent EP4349409A1, “COMPOUNDS FOR THE MANAGEMENT OF CELL STEMNESS AND INVASION IN CANCER AND RELATED DISEASES” (Instituto Biomar S.A., priority 2022, dated 2024) are described below.

By IC50 is commonly meant the midpoint of a concentration-inhibition curve.

The subject of assay [1] is TAp73. In words: Western blot of endogenous TAp73 protein in U373 and T98G glioblastoma cell lines. Type of assay: cell-based, human. Particulars: 72 h, BMT9 9 and 18 µM, TMZ 350 µM, BCNU 150 µM. As for the experimental part:
Next, we compared the effect of BMT9 and TMZ or BCNU treatments on endogenous TAp73 protein levels in U373 and T98G glioblastoma cell lines (Figure 2F and G). Cells were treated for 72 h either with BMT9 at 9 and 18 µM, or with TMZ and BCNU at the standard concentrations referred in other articles (350 µM and 150 µM, respectively). Protein extracts were obtained and analyzed by Western blot using a TAp73 specific antibody and GAPDH as a loading control. Densitometric quantification of the obtained blots are represented in Figure 2F and G (Y axis, ratio of TAp73/GAPDH band intensity and X axis, indicated treatments).
In general terms: In western blotting, separated proteins are transferred to a membrane and probed.

Assay [2] deals with TAp73. Description: Western blot of endogenous TAp73 protein in glioblastoma stem cells G144 and G179. Type of assay: cell-based, human. The conditions noted are these: G144 and G179, 72 h; BMT9 2.25 µM, TMZ 350 µM, BCNU 150 µM. The protocol: To specifically address BMT9 effect on endogenous TAp73 protein levels, we performed a Western blot analysis using an anti-TA-specific antibody. Cells were treated for 72 h either with a low dose of BMT9 (2.25 µM), or with TMZ and BCNU at the standard concentrations used in other articles (350 µM and 150 µM, respectively). Protein extracts were obtained and analyzed by Western blot (Figure 4B-C) and densitometric quantification of the autoradiographies was carried out. The ratio of TAp73/GAPDH band intensity was calculated and protein expression levels relative to non-treated (NT) cells were represented (Y axis).

The test system of the next assay is T98G. Description: MTT-based cytotoxicity assay, T98G. The assay is classed as cell-based. Particulars: Homo sapiens, 72 h. The protocol: (§1) A dose-response analysis of BMT9 (concentrations ranging from 4.5 µM-18 µM), BCNU (from 150 µM-500 µM) and TMZ (350 µM-700 µM) was performed in two conventional glioblastoma cell lines (T98G, U373) and the GNS cell line G144 by MTT-based cytotoxicity assays (Figure 5A-D). Cells were seeded on p96-well plates and treated with the different compounds for 72 h. Then, the MTT reagent (3-(4,5-Dimethyl-2-thiazolyl)-2,5-diphenyl-2H-tetrazolium bromide diluted in PBS to a concentration of 1mg/ml), was added to each well to a final concentration of 0.33mg/ml, and incubated for 3 h at 37°C. After that, the media was removed, and formazan crystals were solubilized with DMSO. Absorbance was measured at 560 nm using a "Synergy HT" plate reader (Biotek). In the graphs, the Y axis represents the percentage of cell viability relative to non-treated cells. The IC50, when reached are marked by a rectangle. DMSO treatment had no effect on cell viability.
For orientation: Tetrazolium dyes change colour on reduction, which living cells bring about.

For the next assay, the system named is U373. In words: MTT-based cytotoxicity assay, U373. Type of assay: cell-based. Particulars: Homo sapiens, U373 MG, 72 h. The protocol:
as §1

A further assay deals with G179. Description: MTT-based cytotoxicity assay, G179. The assay is classed as cell-based. Particulars: G179, 72 h after treatment.
In the next assay the test system is G144 cells. In words: Annexin V / propidium iodide apoptosis flow cytometry in G144 cells. Type of assay: cell-based, human. Particulars: 48 h. As for the experimental part:
For apoptosis induction analysis, the cells were treated with increasing amounts of BMT9 (4.5 µM and 9 µM) and collected 48 h after treatment. Anexin V and propidium iodide staining was performed using the FITC Annexin V Apoptosis Detection Kit I (BD Biosciences), following the manufacturer's instructions. Flow cytometry was performed with the "MACSQuantify Analyzer" (Miltenyi Biotec) and data were analyzed with "MACSQuantify" software (Miltenyi Biotec) (Figure 7A).
A general note: In flow cytometry, cells or beads pass a laser one at a time.

For a further assay, the system named is GNSC. In words: Immunostaining for Nestin, Tuj1 and GFAP (differentiation) in GNSC. Type of assay: cell-based. The conditions noted are these: 4.5 µM. As for the experimental part:
Moreover, we asked whether BMT9, at IC50 concentration, induced differentiation of these GNSC. For these experiments, cells were seeded under proliferation conditions and treated with BMT9 at 4.5 µM for 72 h. Cells were fixed with 3.7% paraformaldehyde for 15 min and immunostained with Nestin, Tuj1 and GFAP specific antibodies. Samples were analyzed using a Zeiss LSM800 confocal microscopy. To quantify the percentage of neural (Tuj-1) (Figure 7D) and astrocytic (GFAP+) (Figure 7E) differentiated cells, positive cells for each marker were manually counted and compared with the total number of cells.

The test system of assay [3] is normal human fetal neural stem cells-NSC. Description: Long term MTT viability, normal neural stem cells. The conditions noted are these: CD133-positive NSC, 1.125-4.5 µM. The assay is classed as cell-based. The protocol:
Previous studies have reported that the molecular signature of the GNSC G144 cell line corresponds to a 'proneural' subtype of GB with NSC features (Pollard et al., 2009; Danovi et al., 2013). Thus, to test BMT9 specificity we compared cellular viability when treating CD133-positive cells (either GNSCs or normal human fetal neural stem cells-NSC) versus CD133-negative human embryonic fibroblast (HEFs) (Figure 8A). MTT-based cytotoxicity assay (Figure 7B-D) were performed as previously described.

Another assay has as its system G144 R700. Description: MTT assay, TMZ-resistant clone G144 R700. Type of assay: cell-based. Particulars: Homo sapiens, 72 hours. The source says: While the first line therapy of gliomas has proven its effectiveness and improved clinical outcomes, acquired chemoresistance to alkylating agents has been identified as a major cause of treatment failure (Sarkaria et al., 2008). In a murine model of GB, long-term treatment with subtoxic TMZ doses enriched the side population of cancer stem cells, increasing the tumor aggressiveness (Bleau et al., 2009). Thus, we generated TMZ-resistant G144-clones that were selected upon treatment with TMZ either at 500 µM or 700 µM for several months (R500 and R700, respectively). The obtained clones maintained CD133 stem marker expression (Figure 9A). We then analyzed BMT9 dose-dependent effect on cell viability, by MTT assay, comparing the resistant clones to parental cells.

Assay [4] relates to invasiveness-related genes. In words: qRT-PCR of invasiveness-related genes in G144 cells. Type of assay: cell-based, human. Particulars: G144, 4.5 µM, 72 h. As for the experimental part:
For expression analysis, G144 cells were treated with BMT9 (4.5 µM) and after 72 h mRNA was extracted and qRT-PCR was performed.

As to `C=C1C2CCC(C)(C3COc4c(C)c(OC)c5c(c4C3O)C(O)OC5=O)C1CCC2(C)C` (stereo not drawn) [BMT9], the “endogenous TAp73 protein levels (TAp73/GAPDH)” value is on record as “efficiently reduced endogenous TAp73 expression” with TAp73 [1] and “reduced effectively TAp73 expression” in the assay with TAp73 [2]. In addition, the IC50 in the assay on T98G was greater than 9 µM; in the assay with U373, 18 µM; with G144 R700, 3.37 to 4.5 µM. Further, the “concentration as low as which still reduced viability” value in the assay on G179 was 6.75 µM. The apoptosis induction result in the assay with G144 cells (G144, 4.5 µM (IC50 dosage)) is “moderate levels of apoptosis”; in the assay with G144 cells (G144, 9 µM) it was “strongly induced cell death”. In addition, the “expression of the stem cell marker Nestin” value with GNSC (72 h (data not shown)) was “reduced the expression of the stem cell marker Nestin”. In addition, in the assay on GNSC (72 h, proliferating culture conditions), the “neural differentiation (Tuj1 and GFAP positive cells)” value is on record as “induced neural differentiation”. For the same compound, in assay [3], the “cellular viability in long term culture” value is listed as “affected”. In [4], the “expression of a set of invasiveness-related genes” value is “downregulation of all the analyzed genes”.
